Data on 5 molecules can be found in US5312818A, “Method of protecting against and/or treating ulcerative gastrointestinal conditions using a thromboxane A2 receptor antagonist and combination useful in preventing and/or treating ulcers and/or inflammation” (E. R. Squibb & Sons, Inc., priority 1992, dated 1994).

Read-outs that look alike come from different tables or passages of the source.

The subject of data set [1] is aspirin-induced gastric ulcers. Briefly: aspirin-induced gastric ulcers in rats. Format: in vivo, male Sprague-Dawley rats. Conditions: for inhibition of gastric erosions: aspirin treated rats; for % Ulcer Inhibition: Table 1. The procedure: (§1) The following experiment was carried out to evaluate thromboxane receptor involvement in other models of gastro-intestinal ulcer.
[…] In each of these experiments, a dose of SQ 33,961 or vehicle (9.5% ethanol in 0.02% Na2 CO3, pH 9; 5 mL/kg) was administered by intraperitoneal injection 60 minutes before administration of aspirin, aspirin vehicle (1% methyl cellulose; 5 mL/kg, p.o.), indomethacin, or indomethacin vehicle (3.2% Na2 CO3, pH 8; 5 mL/kg, s.c.) in fasted male Sprague-Dawley rats (174-352 g). Three hours later, the rats were sacrificed by CO2 asphyxiation, the stomachs excised and opened, the lumen rinsed with saline, and the number and areas of gastric lesions measured.
*Aspirin Dose = 200 mg/kg, p.o. 1 hour after dosing with Test Agent. Rats
were sacrificed and ulcers measured 3 hours after aspirin administration.

Data set [2] has as its system taurocholic acid-induced ulcers. Briefly: taurocholic acid-induced gastric ulcers in rats. The data set is classed as in vivo. The conditions noted are these: i.p. The procedure: The following experiment was conducted to determine the cytoprotective potential of the thromboxane receptor antagonist SQ 33,961 on taurocholic acid-induced ulcers in rats.
Fasted rats were treated with either vehicle (9.5% ethanol in 0.02% Na2 CO3, pH 9; 5 mL/kg, i.p.) or SQ 33,961 (0.01 to 10 mg/kg, i.p.) 60 minutes before administration of either vehicle (0.2N HCl, pH 2; 1.0 mL, p.o.) or taurocholic acid (100 mM, pH 2; 1.0 mL, p.o.). One hour later, rats were sacrificed and gastric lesion number and areas measured. There were no gastric erosions in the groups of rats challenged with the taurocholic acid vehicle.

Another data set has as its system carrageenan paw edema. Briefly: carrageenan paw edema model in rats. The data set is classed as in vivo. Conditions: for effect on development of paw edema (in words): 10 mg/kg i.p.; for Paw Volume 3 hours after Carrageenan injection: SQ 33,961 10 mg/kg i.p. and/or indomethacin 10 mg/kg i.p., 7-8 rats. Here is the method: Paw volumes were measured before and hourly after carageenan injection in the 4 groups (N=7-8 each).

For data set [3], the system named is indomethacin-induced gastric ulcers. Format: in vivo, male Sprague-Dawley rats. The conditions noted are these: for inhibition of gastric erosions: indomethacin treated rats; for % Ulcer Inhibition: Table 1. Here is the method: as §1
In two studies, SQ 33,961 (1 and 10 mg/kg, i.p.) was evaluated in models of gastric ulcer induced by indomethacin (20 mg/kg, s.c.) and aspirin (200 mg/kg, p.o.). In each of these experiments, a dose of SQ 33,961 or vehicle (9.5% ethanol in 0.02% Na2 CO3, pH 9; 5 mL/kg) was administered by intraperitoneal injection 60 minutes before administration of aspirin, aspirin vehicle (1% methyl cellulose; 5 mL/kg, p.o.), indomethacin, or indomethacin vehicle (3.2% Na2 CO3, pH 8; 5 mL/kg, s.c.) in fasted male Sprague-Dawley rats (174-352 g). Three hours later, the rats were sacrificed by CO2 asphyxiation, the stomachs excised and opened, the lumen rinsed with saline, and the number and areas of gastric lesions measured.

Consider `O=C(O)Cc1ccc(CCNS(=O)(=O)c2ccc(Cl)cc2)cc1` [BM 13,505, 4-[2-(4-chlorobenzenesulfonamido)ethyl]phenylacetic acid, reference compound], for which the “Average Gastric Lesion Area” value in data set [1] (20.00 mg/kg, i.p., N=9, Table 3, aspirin 200 mg/kg, p.o., vehicle 11.18 ± 2.35) was 4.68 ± 1.63 mm^2. In addition, the “effect on aspirin-induced gastric erosions (in words)” value in data set [1] (aspirin 200 mg/kg, p.o.) was “significantly diminished aspirin-induced gastric erosions”.

`O=C(O)CCc1ccccc1C[C@@H]1[C@H](c2nc(C(=O)NCCCCC3CCCCC3)co2)[C@H]2CC[C@@H]1O2` [SQ 33,961, [1S-(1α,2α,3α,4α)]-2-[[3-[4-[[(4-cyclohexylbutyl)amino]carbonyl]-2-oxazolyl]-7-oxabicyclo[2.2.1]hept-2-yl]methyl]benzenepropanoic acid]: the “Average Gastric Lesion Area” value in data set [1] (0.1 mg/kg, i.p., N=6, Table 3, aspirin 200 mg/kg, p.o.) was determined as 6.21 ± 1.66 mm^2; in data set [1] (1.0 mg/kg, i.p., N=9, Table 3, aspirin 200 mg/kg, p.o.), 2.86 ± 1.02 mm^2; in data set [1] (10.0 mg/kg, i.p., N=9, Table 3, aspirin 200 mg/kg, p.o.) it was 0.62 ± 0.34 mm^2; in data set [1] (Aspirin (200 mg/kg, p.o.) + 1 mg/kg, i.p., 9 rats), 2.86 ± 1.02; in data set [1] (Aspirin (200 mg/kg, p.o.) + 10 mg/kg, i.p., 9 rats) it was 0.62 ± 0.34. In addition, the “inhibition of gastric erosions” value in data set [1] (1 mg/kg, i.p.) is on record as “about 70%”; in data set [1] (10 mg/kg, i.p.), approximately 95%; in data set [3] (1 mg/kg, i.p.) it was “about 70%”; in data set [3] (10 mg/kg, i.p.) it was approximately 95%. In addition, the “% Ulcer Inhibition” value in data set [1] (Aspirin (200 mg/kg, p.o.) + 1 mg/kg, i.p.) was 73%; in data set [1] (Aspirin (200 mg/kg, p.o.) + 10 mg/kg, i.p.) it was 94%; in data set [3] (Indomethacin (20 mg/kg, s.c.) + 1 mg/kg, i.p.), 68%; in data set [3] (Indomethacin (20 mg/kg, s.c.) + 10 mg/kg, i.p.), 97%. Also, the “effect on aspirin-induced gastric erosions (in words)” value in data set [1] (aspirin 200 mg/kg, p.o.) is “dose related reductions in gastric erosions”. The “reduction of gastric lesion area (in words)” value in data set [2] (0.01 to 10 mg/kg) was “dose-related reduction of gastric lesion area”. Moreover, in data set [2] (Rattus norvegicus, ip, 1 h, 60 minutes before taurocholic acid (100 mM, pH 2; 1.0 mL, p.o.), measured one hour later, read-out: ID50, reduction of gastric lesion area), the ED50 stood at 0.012 mg/kg. Moreover, the “effect on development of paw edema (in words)” value in the data set on carrageenan paw edema is recorded as “no significant effect on the development of paw edema”. Also, the “Paw Volume 3 hours after Carrageenan injection” value with carrageenan paw edema came out at 2.6 ± 0.11 mL. Further, the “effect on antiphlogistic activity of indomethacin (in words)” value in the data set with carrageenan paw edema (SQ 33,961 10 mg/kg i.p., indomethacin 10 mg/kg i.p.) is reported as “this antiphlogistic activity was not inhibited”. Moreover, the “Gastric lesion area (mm^2)” value in data set [3] (Indomethacin (20 mg/kg, s.c.) + 1 mg/kg, i.p., 15 rats) was determined as 0.94 ± 0.41; in data set [3] (Indomethacin (20 mg/kg, s.c.) + 10 mg/kg, i.p., 15 rats), 0.08 ± 0.07.

Take `CC(=O)Oc1ccccc1C(=O)O` [Aspirin, reference compound]: the “Average Gastric Lesion Area” value in data set [1] (Aspirin (200 mg/kg, p.o.) + Vehicle (CONTROL), 11 rats, text calls it lesion area in mm^2) is recorded as 10.5 ± 2.01. Moreover, the “severity of gastric lesions (in words)” value in data set [1] (aspirin 200 mg/kg, p.o. versus indomethacin 20 mg/kg, s.c.) is recorded as “more severe gastric lesions than indomethacin”. Besides, the “Average total lesion area” value in data set [1] (aspirin 200 mg/kg, p.o., three hours, N=11) is 10.5±2.1 mm^2.

For the molecule `O=C(O)c1ccc(OCCn2ccnc2)cc1` [Dazoxiben, reference compound], the “Average Gastric Lesion Area” value in data set [1] (50.0 mg/kg, i.p., N=6, Table 3, aspirin 200 mg/kg, p.o.) stood at 25.40 ± 8.50 mm^2. The “effect on aspirin-induced gastric erosions (in words)” value in data set [1] (aspirin 200 mg/kg, p.o.) is listed as “did not diminish aspirin-induced gastric erosions”.

`COc1ccc2c(c1)c(CC(=O)O)c(C)n2C(=O)c1ccc(Cl)cc1` [Indomethacin, reference compound]: in the data set on carrageenan paw edema, the “effect on development of paw edema (in words)” value is “significantly inhibited edema formation” and the “Paw Volume 3 hours after Carrageenan injection” value is 2.2 ± 0.08 mL. In data set [3] (Indomethacin (20 mg/kg, s.c.) + Vehicle (CONTROL), 16 rats, text calls it lesion area in mm^2), the “Gastric lesion area (mm^2)” value is reported as 2.90 ± 0.81. In data set [3] (indomethacin 20 mg/kg, s.c., three hours, N=16), the “Average total lesion area” value is recorded as 2.9±0.8 mm^2.
